{"source": "patent US11807873B2", "about": "“Conversion of S-lignin compounds to useful intermediates” (Alliance for Sustainable Energy, LLC, priority 2020, dated 2023)", "key": {"[1]": {"molecular_target": "T1, VanAB (vanillate O-demethylase) (Pseudomonas putida, UniProt Q88GI6)", "T1 sequence (Q88GI6 entry or part of it)": "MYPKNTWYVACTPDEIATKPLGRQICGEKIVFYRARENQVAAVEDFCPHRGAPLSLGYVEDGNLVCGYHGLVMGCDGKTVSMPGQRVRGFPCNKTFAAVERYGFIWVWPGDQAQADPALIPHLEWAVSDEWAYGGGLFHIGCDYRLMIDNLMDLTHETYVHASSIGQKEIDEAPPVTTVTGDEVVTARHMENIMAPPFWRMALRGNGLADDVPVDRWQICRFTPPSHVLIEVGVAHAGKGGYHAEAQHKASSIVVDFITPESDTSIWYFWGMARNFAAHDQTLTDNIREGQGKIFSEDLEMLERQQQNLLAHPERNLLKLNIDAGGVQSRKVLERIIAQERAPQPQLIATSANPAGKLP", "T1 sequence (Q88GI5 entry or part of it, further chain)": "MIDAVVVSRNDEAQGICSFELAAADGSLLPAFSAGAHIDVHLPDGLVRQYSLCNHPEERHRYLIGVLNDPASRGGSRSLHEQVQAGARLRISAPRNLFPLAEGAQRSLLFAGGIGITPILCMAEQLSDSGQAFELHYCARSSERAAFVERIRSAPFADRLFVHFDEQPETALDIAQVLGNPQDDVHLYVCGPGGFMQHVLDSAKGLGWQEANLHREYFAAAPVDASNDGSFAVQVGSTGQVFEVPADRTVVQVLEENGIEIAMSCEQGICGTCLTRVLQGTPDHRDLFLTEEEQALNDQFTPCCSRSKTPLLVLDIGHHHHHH", "experiment": "VanAB coupling of O-demethylation to O2 consumption (HPLC-based assay)", "format": "biochemical, P. putida KT2440", "conditions": "quenched after ~100 μM O2 consumed; for Coupling Substrate/O2: ratio of aromatic substrate consumed:O2 consumed; for Coupling Product/O2: ratio of product produced:O2 consumed", "description": "The ability of VanAB to catalyze the O-demethylation of VA, SA, and 3MGA was evaluated first. Using an HPLC-based assay, the enzyme transformed VA, SA, and 3MGA to PCA, 3MGA, and GA, respectively (see FIG. 14). When reactions were quenched after ˜100 μM of O2 was consumed, the amounts of substrate consumed, and product detected, were equal to the amount of O2 consumed within error (see Table 3). […] However, in the absence of VanA, VanB consumed NADH and O2 to produce H2O2 in the presence of SA. This adventitious consumption of NADH and O2 was not observed in the presence of VA or 3MGA. Further, in reactions containing 2 μM VanB, 1 μM VanA completely outcompeted the reaction of SA with VanB.\nHPLC characterization of transformation products and flavin content: Oxygenase turnover and VanB flavin content were evaluated using a Waters 2695 Separation HPLC module (Milford, MA) equipped with a Waters 2996 photodiode array detector. VanAB reactions contained ˜1 μM VanA, ˜1 μM VanB and 200 μM substrate in air-saturated HEPES (I=0.1 M, pH 7.5). Reactions were incubated for 30 min at 25° C., quenched with glacial acetic acid (final concentration 10% (v/v)), then centrifuged and filtered (0.2 μm) to remove protein. Substrates and products were resolved using a 250×4.6 mm Luna 5 m C18(2) column (Phenomenex, Torrance, CA) and a linear gradient of 0.1% formic acid and methanol. Compound amounts were assessed using integrated peak areas at 260 nm and standard curves for each compound."}, "[2]": {"molecular_target": "T2, PcaHG (PCA 3,4-dioxygenase) (Pseudomonas putida, UniProt P00436+P00437)", "T2 construct": "poly-histidine tag with TEV protease site (N, cleaved yes); made in house; host or cells: E. coli BL-21 λ(DE3)", "T2 sequence (P00437 1-239)": "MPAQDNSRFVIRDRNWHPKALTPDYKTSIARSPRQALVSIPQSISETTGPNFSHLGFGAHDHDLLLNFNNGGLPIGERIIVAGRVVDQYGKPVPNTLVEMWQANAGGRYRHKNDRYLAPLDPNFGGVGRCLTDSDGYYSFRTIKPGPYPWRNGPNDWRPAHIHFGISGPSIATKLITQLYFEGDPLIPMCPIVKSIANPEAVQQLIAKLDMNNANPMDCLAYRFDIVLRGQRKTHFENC", "T2 sequence (P00436 2-201 limits assumed)": "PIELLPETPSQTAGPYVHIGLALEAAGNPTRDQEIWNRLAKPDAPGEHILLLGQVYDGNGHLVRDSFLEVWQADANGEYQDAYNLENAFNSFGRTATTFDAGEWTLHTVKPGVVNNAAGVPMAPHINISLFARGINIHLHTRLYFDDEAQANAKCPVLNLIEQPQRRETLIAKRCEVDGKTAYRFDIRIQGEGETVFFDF", "experiment": "PcaHG steady-state kinetics, oxygraph and spectrophotometric assays", "format": "biochemical, P. putida KT2440", "protocol": "(§4) Steady-state kinetic analyses: Kinetic assays were performed by monitoring the consumption of O2 using a Clark-type polarographic O2 electrode OXYG1 (Hansatech) connected to a circulating water bath. Assays with the exception of GalA were performed in 1 mL of air-saturated 40 mM HEPES, 80 mM NaCl (I=0.1 M, pH 7.5) at 25° C. GalA assays were performed in 40 mM MOPS, 80 mM NaCl (I=0.1 M, pH 7.0) at 30° C. The electrode was calibrated daily according to the manufacturer's instructions using air-saturated buffer and water depleted of 02 via addition of sodium hydrosulfite. Stock solutions were prepared fresh daily. The background rate of O2-consumption was recorded prior to initiating the reaction and was subtracted from the measured reaction rate. Steady-state kinetic parameters were evaluated by fitting the Michaelis-Menten equation to the data using the least-squares fitting of LEONORA.\n(§5) Stock solutions of the substrates were made in dimethylsulfoxide (DMSO). The final concentration of DMSO in the assay solutions was <1% (v/v). […] The reaction was initiated by adding 0.1 μM PcaHG."}, "[3]": {"molecular_target": "GalA (gallate 3,4-dioxygenase) (Pseudomonas putida, UniProt Q88JX5)", "experiment": "GalA inactivation kinetic analyses during turnover", "format": "biochemical", "excerpt": "(§1) GalA preparations had 0.5 equivalents of Fe per mol GalA. GalA cleaved GA with 3-fold higher specificity (˜9×10^5 s^−1 M^−1, see Table 3, FIG. 20) than previously reported. The partition ratio for GA was ˜1900 based on 02 consumption for given amount of GalA (see Table 3, Equation 1). […] Because high concentrations of GalA were needed to detect 3MGA-cleavage activity, cell lysates were used to investigate the inactivation of GalA by 3MGA. Importantly, the inactivation of GalA by GA was similar for the purified enzyme in E. coli lysate (j3^app˜3×10^−2 s^−1, Table 3, FIG. 21). The apparent rate constant of inactivation of GalA by 3MGA was less than 50% higher than for GA (see Table 3).\nInactivation kinetic analyses: GalA inactivation assays were performed by monitoring consumption of 02 using OXYG1 as described in Steady-state kinetic analyses. […] To obtain soluble E. coli lysate containing GalA, 50 mL of culture was suspended in ˜900 μL of 50 mM HEPPS, pH 8.0, 100 mM NaCl. The resuspension was pipetted into a 1.5 mL screw cap tube containing ˜100 μL of 0.1 mm silica sand. Cell were lysed using a Bead Beater rotor (MP Biomedical). Cellular debris and sand were removed by centrifugation. The clarified was removed to a micro centrifuge tube and kept on ice until use.\n(§2) The amount of GalA added to the assay was such that the enzyme was completely inactivated before 10% of either the catecholic substrate or 02 was consumed in the reaction mixture. The partition ratio was calculated using Equation 1 shown above.\n(§3) The apparent apparent rate constant of inactivation during catalytic turnover in air-saturated buffer, j3^app, was determined by fitting Equation 2 to reaction progress curves where St is the substrate concentration at time t. st=(s0−s∞)e^−j^3^app^t+s∞ Equation 2"}, "[4]": {"molecular_target": "T1, VanAB (vanillate O-demethylase)", "experiment": "VanAB steady-state kinetics, O2 consumption (oxygraph)", "protocol": "In evaluating the parameters for VA, 0.4 μM VanA was used to ensure steady-state conditions at low concentrations of VA.\nas §4\nFor VanAB, the standard reaction contained 1 μM VanA, 2 μM Ht-VanB, and 400 μM NADH. […] Stock solutions of the substrates were made in dimethylsulfoxide (DMSO). The final concentration of DMSO in the assay solutions was <1% (v/v). For PcaHG, the standard reaction contained 250 μM PCA. The reaction was initiated by adding 0.1 μM PcaHG. […] The reaction was initiated by adding 0.05 μM GalA."}, "[5]": {"tested_on": "wild-type P. putida KT2440", "experiment": "Toxicity effects on growth of wild-type strain (OD600)", "format": "cell-based, Pseudomonas putida KT2440", "conditions": "M9 minimal media, 20 mM glucose", "description": "Error bars represent the absolute value of two biological replicates.\nBacterial strains, media, and cultivations: Pseudomonas putida KT2440 (ATCC® 47054) was utilized as the wild-type and base strain for all further engineering. Gene deletion, insertion, or replacements in P. putida KT2440 were performed using the antibiotic/sacB counter-selection method as previously described. Diagnostic colony PCR was performed with MyTaq® HS Red Mix (Bioline, USA) to confirm gene deletion, insertion, or replacement (see Table 3 and Table 8). M9 minimal medium was prepared as 6.78 g/L Na2HPO4, 3 g/L KH2PO4, 0.5 g/L NaCl, 1 g/L NH4Cl, 2 mM MgSO4, 100 μM CaCl2), and 18 μM FeSO4, pH 7.0. […] Sodium formate (Sigma, USA) was used to prepare formate stocks in water. Stocks of syringaldehyde were made in 2% (v/v) DMSO. Glucose at 1 M concentration (Sigma, USA) was prepared in water. All carbon sources were 0.2 μm filtered prior to media addition. KT2440 strains were revived from glycerol stocks in LB medium overnight at 30° C. prior to washing in M9 minimal medium. Washed cells were inoculated to an OD600 of 0.1 in 25 mL of M9 minimal media supplemented with the specified carbon/energy source in 125 mL baffled flasks and incubated at 30° C., 225 rpm in biological duplicate or triplicate, as indicated. In the case of 3MGA, the culture volume was reduced to 10 mL in 50 mL baffled flasks due to the cost of this substrate. […] In the case of formate feeding, cultivations were subsequently pH adjusted to pH 7.1-7.3 with formic acid, which provided an additional 0.13-1.75 mmol of formate. To measure cell growth and quantify metabolites, cultures were sampled by removing 1 mL, measuring OD600 of a 1:10 or 1:100 dilution, centrifuging to pellet the cells, and blanking with the OD600 of the supernatant to account for darkening of some cultures due to oxidation of intermediates.\nIn vivo reactions: Wild-type P. putida KT2440 and engineered strains were cultivated overnight in LB medium and centrifuged. […] Flasks were inoculated to an OD600 of 0.1 and incubated at 30° C., 225 rpm. Cultures were sampled periodically by removing 1 mL that was used to measure the OD600 as well as metabolite analysis (see below). Shake flask experiments were performed in triplicate. In the case of 3-MGA, the culture was downscaled to 10 mL in 50 mL baffled flasks and performed in duplicate."}, "[6]": {"substrate": "COc1cc(C(=O)O)cc(O)c1O", "experiment": "GalA inactivation kinetic analyses during turnover", "format": "biochemical", "conditions": "other: calculated from j3^app and partition ratio, MOPS (I = 0.1M, pH 7.0), 30° C", "excerpt": "as §1\nInactivation kinetic analyses: GalA inactivation assays were performed by monitoring consumption of 02 using OXYG1 as described in Steady-state kinetic analyses. […]\nas §2, §3"}, "[7]": {"substrate": "O=C(O)c1cc(O)c(O)c(O)c1", "experiment": "GalA steady-state kinetics, O2 consumption (oxygraph)", "format": "biochemical, P. putida KT2440", "conditions": "other: air-saturated 40 mM MOPS, 80 mM NaCl (I = 0.1M, pH 7.0), 30° C", "protocol": "Steady-state kinetic analyses: Kinetic assays were performed by monitoring the consumption of O2 using a Clark-type polarographic O2 electrode OXYG1 (Hansatech) connected to a circulating water bath. […] GalA assays were performed in 40 mM MOPS, 80 mM NaCl (I=0.1 M, pH 7.0) at 30° C. The electrode was calibrated daily according to the manufacturer's instructions using air-saturated buffer and water depleted of 02 via addition of sodium hydrosulfite. Stock solutions were prepared fresh daily. The background rate of O2-consumption was recorded prior to initiating the reaction and was subtracted from the measured reaction rate. Steady-state kinetic parameters were evaluated by fitting the Michaelis-Menten equation to the data using the least-squares fitting of LEONORA.\nStock solutions of the substrates were made in dimethylsulfoxide (DMSO). The final concentration of DMSO in the assay solutions was <1% (v/v). […] The reaction was initiated by adding 0.05 μM GalA."}, "[8]": {"substrate": "O=C(O)c1cc(O)c(O)c(O)c1", "experiment": "PcaHG steady-state kinetics, oxygraph and spectrophotometric assays", "format": "biochemical, P. putida KT2440", "conditions": "other: air-saturated HEPES (I = 0.1M), pH 7.5, 25° C", "protocol": "as §4, §5"}}, "data": [{"molecule": "COc1cc(C(=O)O)cc(O)c1O", "note": "[3MGA, 3-O-methylgallate]", "values": [{"measurement": "Coupling Substrate/O2", "setting": "[1]", "value": "1.0 ± 0.1 mol:mol"}, {"measurement": "Coupling Product/O2", "setting": "[1]", "value": "1.1 ± 0.2 mol:mol"}, {"measurement": "cleavage by PcaHG", "setting": "[2]; oxygraph and spectrophotometric assays", "value": "did not detectably cleave"}, {"measurement": "apparent rate constant of inactivation of GalA, higher than for GA", "setting": "[3]", "value": "less than 50%"}, {"measurement": "kcat^app relative to that for GA", "setting": "[3]", "value": "~0.025", "unit": "%"}, {"measurement": "partition ratio relative to that for GA", "setting": "[3]", "value": 0.2, "unit": "%"}, {"measurement": "j3^app (apparent rate constant of inactivation during turnover)", "setting": "[3]; air-saturated 40 mM MOPS, 80 mM NaCl (I = 0.1M, pH 7.0), 30° C", "value": "3.8 ± 0.3 ×10^−2 s^−1"}, {"measurement": "Partition Ratio", "setting": "[3]; calculated from the O2 consumption for a given amount of GalA", "value": "3.3 ± 0.6"}, {"measurement": "apparent specificity of VanAB relative to that for VA", "setting": "[4]; O-demethylation", "value": "~1", "unit": "%"}]}, {"molecule": "O=C(O)c1ccc(O)c(O)c1", "note": "[PCA, protocatechuate]", "values": [{"measurement": "specific activity of purified PcaHG", "setting": "[2]", "value": 3.8, "unit": "U/mg"}, {"measurement": "kcat^app", "setting": "[2]; air-saturated HEPES (I = 0.1M), pH 7.5, 25° C", "value": "0.95 ± 0.03", "unit": "s⁻¹"}, {"measurement": "Km", "setting": "[2]; air-saturated HEPES (I = 0.1M), pH 7.5, 25° C, read-out: KM^app", "value": "33 ± 2", "unit": "µM"}]}, {"molecule": "COc1cc(C(=O)O)cc(OC)c1O", "note": "[SA, syringate]", "values": [{"measurement": "toxicity to P. putida KT2440 compared with VA", "setting": "[5]", "value": "more toxic"}, {"measurement": "growth at 120 mM substrate", "setting": "[5]", "value": "able to grow"}]}, {"molecule": "COc1cc(C=O)cc(OC)c1O", "note": "[SAL, syringaldehyde]", "values": [{"measurement": "toxicity to P. putida KT2440 compared with VA", "setting": "[5]", "value": "more toxic"}]}, {"molecule": "COc1cc(C(=O)O)ccc1O", "note": "[VA, vanillate]", "values": [{"measurement": "Coupling Substrate/O2", "setting": "[1]", "value": "1.3 ± 0.2 mol:mol"}, {"measurement": "Coupling Product/O2", "setting": "[1]", "value": "1.1 ± 0.1 mol:mol"}, {"measurement": "growth at 120 mM substrate", "setting": "[5]", "value": "not"}, {"measurement": "apparent specificity of VanAB", "setting": "[4]; 0.4 μM VanA", "value": "~200000", "unit": "s⁻¹ M⁻¹"}]}, {"molecule": "GalA (gallate 3,4-dioxygenase) (Pseudomonas putida KT2440) (protein) MARIIGGLAVSHTPTIGFAVDHDKQEEAAWAPIFESFEPIRTWLQQRQPDVLFYIFNDHITSFFFDHYSAFTLGVDEQYGVADEGGNPRDLPPVGGHAALSRHIGQSLMADEFDMSFFRDKPLDHGFFSPMSALLPCDESWPVQIVPLQVGVLQLPIPTARRCYKLGQALRRAIESYPEDLKVAIVATGGVSHQVHGERCGFNNPEWDAQFLDLLVNDPQRLTEMTLAEYATLGGMEGAEVITWLIMRGTLSANVERKHQSYYLPSMTGIATLLLENRDQALPAPVNERHRQHMQHQLAGAEQLEGTYPYTLERSAKGYRLNKFLHRMIEPQWRQRFLSEPEALYREAGLSEEESDLLRRRDWRGLIHYGVIFFVLEKLGAVLGVSNLDIYAAMRGQSIEDFMKTRNQQVRYSVAGKAPN", "values": [{"measurement": "kcat", "setting": "[6]", "value": "0.012 ± 0.002^d s^−1"}, {"measurement": "Km", "setting": "[7]", "value": "59 ± 5", "unit": "µM"}, {"measurement": "kcat", "setting": "[7]", "value": "52 ± 4", "unit": "s⁻¹"}, {"measurement": "kcat/Km", "setting": "[7]", "value": "90 ± 10 ×10^4 s^−1 · M^−1"}]}, {"molecule": "PcaHG (PCA 3,4-dioxygenase) (Pseudomonas putida) (protein, poly-histidine tag with TEV protease site (N, cleaved yes); made in house; host or cells: E. coli BL-21 λ(DE3)) chain 1: MPAQDNSRFVIRDRNWHPKALTPDYKTSIARSPRQALVSIPQSISETTGPNFSHLGFGAHDHDLLLNFNNGGLPIGERIIVAGRVVDQYGKPVPNTLVEMWQANAGGRYRHKNDRYLAPLDPNFGGVGRCLTDSDGYYSFRTIKPGPYPWRNGPNDWRPAHIHFGISGPSIATKLITQLYFEGDPLIPMCPIVKSIANPEAVQQLIAKLDMNNANPMDCLAYRFDIVLRGQRKTHFENC chain 2: PIELLPETPSQTAGPYVHIGLALEAAGNPTRDQEIWNRLAKPDAPGEHILLLGQVYDGNGHLVRDSFLEVWQADANGEYQDAYNLENAFNSFGRTATTFDAGEWTLHTVKPGVVNNAAGVPMAPHINISLFARGINIHLHTRLYFDDEAQANAKCPVLNLIEQPQRRETLIAKRCEVDGKTAYRFDIRIQGEGETVFFDF", "values": [{"measurement": "Km", "setting": "[8]", "value": "15 ± 2", "unit": "µM"}, {"measurement": "kcat", "setting": "[8]", "value": "0.0675 ± 0.0003", "unit": "s⁻¹"}, {"measurement": "kcat/Km", "setting": "[8]", "value": "0.51 ± 0.06 ×10^4 s^−1 · M^−1"}]}]}
